From patent US11149054B2, “Oxysterols and methods of use thereof” (Sage Therapeutics, Inc., priority 2016, dated 2021)
pEC50: −log10 of the molar value. Read-outs that look alike come from different tables or passages of the source.

What was measured:
[1] = target: GluN2B glutamate receptors (Homo sapiens (Human), UniProt Q05586+Q13224); experiment: Whole-cell patch clamp of mammalian cells (Ionworks Barracuda), positive allosteric modulation, GluN2B; assay type: cell-based; conditions: for Emax: read-out: Avg Emax 2B (%)
GluN2B glutamate receptors, sequence (Q13224 27-1484, other chains not shown): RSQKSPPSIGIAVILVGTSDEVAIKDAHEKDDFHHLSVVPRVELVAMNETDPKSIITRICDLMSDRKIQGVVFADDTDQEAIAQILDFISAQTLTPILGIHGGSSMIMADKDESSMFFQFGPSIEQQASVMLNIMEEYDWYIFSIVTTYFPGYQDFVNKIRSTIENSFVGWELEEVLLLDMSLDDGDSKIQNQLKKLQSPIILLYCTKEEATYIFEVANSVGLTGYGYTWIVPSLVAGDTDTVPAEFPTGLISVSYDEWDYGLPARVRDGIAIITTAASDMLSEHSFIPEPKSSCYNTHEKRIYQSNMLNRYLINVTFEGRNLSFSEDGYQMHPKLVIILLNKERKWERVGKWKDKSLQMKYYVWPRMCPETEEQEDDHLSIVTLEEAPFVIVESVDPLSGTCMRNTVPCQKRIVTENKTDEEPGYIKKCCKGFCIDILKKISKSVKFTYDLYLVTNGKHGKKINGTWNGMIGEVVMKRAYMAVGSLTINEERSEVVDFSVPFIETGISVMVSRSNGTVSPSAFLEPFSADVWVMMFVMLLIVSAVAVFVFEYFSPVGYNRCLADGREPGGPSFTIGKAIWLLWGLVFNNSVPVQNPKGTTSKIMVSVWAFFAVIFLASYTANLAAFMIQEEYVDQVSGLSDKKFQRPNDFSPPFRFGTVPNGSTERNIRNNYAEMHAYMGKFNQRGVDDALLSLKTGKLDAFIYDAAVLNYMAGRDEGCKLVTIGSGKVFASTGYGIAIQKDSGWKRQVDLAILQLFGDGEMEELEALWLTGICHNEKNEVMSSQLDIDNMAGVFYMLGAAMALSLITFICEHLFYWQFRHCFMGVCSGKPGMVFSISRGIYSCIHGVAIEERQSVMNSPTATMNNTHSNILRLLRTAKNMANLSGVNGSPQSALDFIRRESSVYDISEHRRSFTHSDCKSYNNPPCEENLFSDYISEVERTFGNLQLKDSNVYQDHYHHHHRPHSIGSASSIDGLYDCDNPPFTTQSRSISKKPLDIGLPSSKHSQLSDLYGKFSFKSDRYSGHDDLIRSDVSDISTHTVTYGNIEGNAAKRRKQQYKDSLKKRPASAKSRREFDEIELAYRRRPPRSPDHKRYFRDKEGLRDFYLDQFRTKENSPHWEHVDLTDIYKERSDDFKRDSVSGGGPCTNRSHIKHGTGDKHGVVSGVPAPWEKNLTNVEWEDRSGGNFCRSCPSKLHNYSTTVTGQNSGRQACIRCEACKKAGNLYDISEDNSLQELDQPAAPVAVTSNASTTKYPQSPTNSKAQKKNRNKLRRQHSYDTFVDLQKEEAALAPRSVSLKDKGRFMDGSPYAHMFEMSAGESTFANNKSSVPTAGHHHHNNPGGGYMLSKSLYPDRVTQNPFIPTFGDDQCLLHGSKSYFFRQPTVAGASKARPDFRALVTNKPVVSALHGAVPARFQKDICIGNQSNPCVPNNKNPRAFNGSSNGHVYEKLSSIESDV
Procedure, shortened: (§1)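 Perforated-patch whole-cell recording, holding −70 mV, −40 mV during application; Cs-based internal pH 7.2, external with 5 mM CaCl2 pH 7.4. Test article pre-applied alone 5 min, then co-applied with EC20 L-glutamate plus 30 μM glycine. EC50 from Hill fit of % activation over the EC20 current.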

[2] = target: GlunN1/GluN2A glutamate receptors (Homo sapiens (Human), UniProt Q05586+Q12879); experiment: Whole-cell patch clamp of mammalian cells (Ionworks Barracuda), positive allosteric modulation, GluN1/GluN2A; assay type: cell-based
GlunN1/GluN2A glutamate receptors, sequence (Q12879 23-1464, other chains not shown): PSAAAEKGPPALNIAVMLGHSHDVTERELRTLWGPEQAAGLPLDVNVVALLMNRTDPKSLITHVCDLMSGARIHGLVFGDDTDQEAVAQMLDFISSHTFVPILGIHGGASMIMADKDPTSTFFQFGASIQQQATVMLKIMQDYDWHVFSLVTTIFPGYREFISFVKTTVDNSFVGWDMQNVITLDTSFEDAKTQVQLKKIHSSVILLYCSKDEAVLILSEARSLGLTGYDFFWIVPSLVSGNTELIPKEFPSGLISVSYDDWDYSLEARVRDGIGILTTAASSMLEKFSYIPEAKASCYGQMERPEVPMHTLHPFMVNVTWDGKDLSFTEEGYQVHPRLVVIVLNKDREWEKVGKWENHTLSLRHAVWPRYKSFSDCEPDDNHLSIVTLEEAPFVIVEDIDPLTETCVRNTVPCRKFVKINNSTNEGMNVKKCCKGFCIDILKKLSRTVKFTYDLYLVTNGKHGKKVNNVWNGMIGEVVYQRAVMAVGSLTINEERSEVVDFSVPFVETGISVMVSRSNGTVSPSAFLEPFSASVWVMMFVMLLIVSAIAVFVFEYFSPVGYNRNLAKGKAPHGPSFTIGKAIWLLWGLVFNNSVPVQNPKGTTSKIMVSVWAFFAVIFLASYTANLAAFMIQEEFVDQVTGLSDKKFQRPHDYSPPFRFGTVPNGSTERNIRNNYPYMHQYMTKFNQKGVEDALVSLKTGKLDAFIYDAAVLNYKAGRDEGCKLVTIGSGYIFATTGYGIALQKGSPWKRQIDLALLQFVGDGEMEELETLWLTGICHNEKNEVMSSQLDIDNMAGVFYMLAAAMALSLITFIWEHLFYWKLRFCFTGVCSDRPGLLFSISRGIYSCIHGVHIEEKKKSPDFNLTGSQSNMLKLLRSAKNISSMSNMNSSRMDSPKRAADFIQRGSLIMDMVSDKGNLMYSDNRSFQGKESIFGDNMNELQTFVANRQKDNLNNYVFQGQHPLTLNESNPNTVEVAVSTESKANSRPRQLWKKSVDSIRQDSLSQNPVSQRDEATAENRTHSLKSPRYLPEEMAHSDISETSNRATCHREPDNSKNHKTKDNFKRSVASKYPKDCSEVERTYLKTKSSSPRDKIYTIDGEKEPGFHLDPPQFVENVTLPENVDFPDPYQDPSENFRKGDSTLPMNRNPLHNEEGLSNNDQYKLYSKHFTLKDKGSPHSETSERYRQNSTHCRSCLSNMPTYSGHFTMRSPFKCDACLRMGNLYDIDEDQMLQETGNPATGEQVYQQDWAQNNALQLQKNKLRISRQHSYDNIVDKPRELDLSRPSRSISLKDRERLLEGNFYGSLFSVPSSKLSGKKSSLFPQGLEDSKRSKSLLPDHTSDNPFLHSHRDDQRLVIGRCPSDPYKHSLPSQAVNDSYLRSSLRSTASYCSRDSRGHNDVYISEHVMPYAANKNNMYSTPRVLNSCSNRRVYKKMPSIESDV
Procedure, shortened: as §1

[3] = HEK293, read-out: Avg Emax 2A (%)
[4] = % potentiation of current elicited with EC20 L-glutamate and 30 μM glycine
[5] = HEK293 cells, % potentiation of current elicited with EC20 L-glutamate and 30 μM glycine, read-out: Avg Emax 2A (%)
[6] = HEK293 cells, co-application with EC20 L-glutamate and 30 μM glycine, 8-point concentration-response, read-out: Avg EC50 2A
[7] = co-application with EC20 L-glutamate and 30 μM glycine, 8-point concentration-response, read-out: Avg EC50 2B

SMILES | pEC50 [1] | Emax [1] [%] | pEC50 [2] | Emax [2, 3] [%] | Emax [1, 4] [%] | Emax [2, 5] [%] | pEC50 [2, 6] | pEC50 [1, 7]
C[C@H](CCC(O)C(C)(C)C)[C@H]1CC[C@H]2[C@@H]3CC[C@H]4C[C@](O)(C(F)(F)F)CC[C@]4(C)[C@H]3CC[C@]12C (stereo partly drawn) [Compound 3] | 6.47 | 532 | 6.73 | 556 | – | – | – | –
C[C@H](CC[C@@H](O)C(C)(C)C)[C@H]1CC[C@H]2[C@@H]3CC[C@@H]4C[C@](O)(C(F)(F)F)CC[C@]4(C)[C@H]3CC[C@]12C [Compound 3788] | 5.95 | – | 5.88 | – | – | – | – | –
C[C@H](CCC1(O)CCOC1)[C@H]1CC[C@H]2[C@@H]3CC[C@H]4C[C@](O)(C(F)(F)F)CC[C@]4(C)[C@H]3CC[C@]12C (stereo partly drawn) [Compound 1967] | 6.95 | – | 6.77 | – | 374 | 347 | – | –
C[C@H](CC[C@@H](O)C(F)(F)F)[C@H]1CC[C@H]2[C@@H]3CC=C4C[C@](O)(C(F)(F)F)CC[C@]4(C)[C@H]3CC[C@]12C [Compound 3149] | 7.22 | – | 7.16 | – | – | – | – | –
C[C@H](CCC1(O)CCCCCC1)[C@H]1CC[C@H]2[C@@H]3CC[C@H]4C[C@](O)(C(F)(F)F)CC[C@]4(C)[C@H]3CC[C@]12C [Compound 3983] | 6.61 | – | 7.06 | – | – | – | – | –
C[C@H](CC[C@@H](O)C1CCOCC1)[C@H]1CC[C@H]2[C@@H]3CC[C@H]4C[C@](O)(C(F)(F)F)CC[C@]4(C)[C@H]3CC[C@]12C [Compound 2081] | 6.76 | – | 6.89 | – | 215 | 126 | – | –
CC[C@]1(O)CC[C@@]2(C)C(=CC[C@H]3[C@@H]4CC[C@H]([C@H](C)CC[C@H](O)c5cccnc5)[C@@]4(C)CC[C@@H]32)C1 [Compound 6458] | 6.03 | – | < 5.00 | – | 79.4 | 30.9 | – | –
CC[C@]1(O)CC[C@H]2[C@@H](CC[C@@H]3[C@@H]2CC[C@]2(C)[C@@H]([C@H](C)CCC(O)C(C)C)CC[C@@H]32)C1 (stereo partly drawn) [Compound 476] | 6.72 | – | 6.39 | – | 399 | 811 | – | –
C[C@H](CCC1(O)CCC(F)(F)CC1)[C@H]1CC[C@H]2[C@@H]3CC=C4C[C@](O)(C(F)(F)F)CC[C@]4(C)[C@H]3CC[C@]12C [Compound 2392] | 7.32 | – | 6.98 | – | – | – | – | –
C[C@H](CCC1(O)CCC(F)(F)CC1)[C@H]1CC[C@H]2[C@@H]3CC[C@H]4C[C@](O)(C(F)(F)F)CC[C@]4(C)[C@H]3CC[C@]12C [Compound 8] | 6.43 | – | 6.35 | – | – | – | – | –
CC(C)[C@@H](O)CC[C@@H](C)[C@H]1CC[C@H]2[C@@H]3CC[C@H]4C[C@](O)(C(F)(F)F)CC[C@]4(C)[C@H]3CC[C@]12C [Compound 2A] | 6.47 | – | – | – | – | 653 | 6.80 | –
C[C@H](CC[C@@H](C)O)[C@H]1CC[C@H]2[C@@H]3CC=C4C[C@](O)(C(F)(F)F)CC[C@]4(C)[C@H]3CC[C@]12C [Compound 3266] | – | – | – | – | 135 | 82.6 | 6.83 | 6.42
C[C@H](CC[C@H](O)C(C)(C)C)[C@H]1CC[C@H]2[C@@H]3CC[C@@H]4C[C@](O)(C(F)(F)F)CC[C@]4(C)[C@H]3CC[C@]12C [Compound 3634] | 6.39 | – | 6.37 | – | – | – | – | –
C[C@H](CC[C@@H](O)C(F)(F)F)[C@H]1CC[C@H]2[C@@H]3CC[C@H]4C[C@](O)(C(F)(F)F)CC[C@]4(C)[C@H]3CC[C@]12C [Compound 5] | 6.58 | – | 6.74 | – | 455 | 619 | – | –
CC[C@]1(O)CC[C@@]2(C)C(=CC[C@H]3[C@@H]4CC[C@H]([C@H](C)CC[C@@H](O)c5ccccc5C#N)[C@@]4(C)CC[C@@H]32)C1 [Compound 7399] | 5.80 | – | 6.16 | – | 180 | 150 | – | –
C[C@H](CCC1(O)CCC2(CC1)CC2)[C@H]1CC[C@H]2[C@@H]3CC[C@H]4C[C@](O)(C(F)(F)F)CC[C@]4(C)[C@H]3CC[C@]12C [Compound 4805] | 6.44 | – | 6.45 | – | 129 | 175 | – | –
CC(C)C(O)CC[C@@H](C)[C@H]1CC[C@H]2[C@@H]3CC[C@H]4C[C@](O)(C(F)(F)F)CC[C@]4(C)[C@H]3CC[C@]12C (stereo partly drawn) [Compound 2] | 6.83 | – | – | – | 605 | 709 | – | –
CC[C@]1(O)CC[C@H]2C(=CC[C@@H]3[C@@H]2CC[C@]2(C)[C@@H]([C@H](C)CCCC4(O)CCC(C)(C)CC4)CC[C@@H]32)C1 [Compound 10317] | – | – | – | – | 59.9 | 56.7 | – | –
CC[C@H](O)CC[C@@H](C)[C@H]1CC[C@H]2[C@@H]3CC[C@H]4C[C@](O)(CC)CC[C@@H]4[C@H]3CC[C@]12C [Compound 8809] | 6.79 | 78.2 | 6.27 | 73.6 | – | – | – | –
C[C@H](CC[C@H](O)C1CCC1)[C@H]1CC[C@H]2[C@@H]3CC[C@H]4C[C@](O)(C(F)(F)F)CC[C@]4(C)[C@H]3CC[C@]12C [7−A] | 6.73 | – | 6.61 | – | 431 | 544 | – | –
CC[C@]1(O)CC[C@@]2(C)C(=CC[C@H]3[C@@H]4CC[C@H]([C@H](C)CC[C@H](O)c5cccc(C#N)c5)[C@@]4(C)CC[C@@H]32)C1 [Compound 6998] | – | – | – | – | 303 | 338 | 6.45 | 6.52
C[C@H](CC[C@](C)(O)C(F)(F)F)[C@H]1CC[C@H]2[C@@H]3CC=C4C[C@@](C)(O)CC[C@@H]4[C@H]3CC[C@]12C [Compound 9062] | – | 52.2 | – | 66.5 | – | – | – | –
C[C@H](CC[C@](C)(O)C(F)(F)F)[C@H]1CC[C@H]2[C@@H]3CC[C@H]4C[C@](O)(C(F)(F)F)CC[C@]4(C)[C@H]3CC[C@]12C [Compound 4] | 6.67 | – | 6.70 | – | 463 | 663 | – | –
CC[C@H](O)CCC[C@@H](C)[C@H]1CC[C@H]2[C@@H]3CC=C4C[C@](O)(CC)CC[C@@H]4[C@H]3CC[C@]12C [Compound 10949] | – | 147 | – | 97.4 | – | – | – | –
CC[C@]1(O)CC[C@H]2C(=CC[C@@H]3[C@@H]2CC[C@]2(C)[C@@H]([C@H](C)CCC4(O)CCC(F)(F)CC4)CC[C@@H]32)C1 [Compound 8708] | 6.26 | – | 6.16 | – | 243 | 117 | – | –
CC[C@]1(O)CC[C@H]2C(=CC[C@@H]3[C@@H]2CC[C@]2(C)[C@@H]([C@H](C)CCC[C@H](O)C(C)(C)C)CC[C@@H]32)C1 [Compound 10043] | 5.97 | – | 6.05 | – | 211 | 146 | – | –
C[C@H](CC[C@](C)(O)C(F)(F)F)[C@H]1CC[C@H]2[C@@H]3CC=C4C[C@](O)(C(F)(F)F)CC[C@]4(C)[C@H]3CC[C@]12C [Compound 3035] | 7.12 | – | 7.21 | – | – | – | – | –
CC[C@]1(O)CC[C@@]2(C)C(=CC[C@H]3[C@@H]4CC[C@H]([C@H](C)CC[C@H](O)c5ccccn5)[C@@]4(C)CC[C@@H]32)C1 [Compound 6347] | 6.51 | – | 6.57 | – | 132 | 64.7 | – | –
